Test results from the NIST ThermoML archive (doi:10.1021/je500239t).
Values joined by “and” are separate entries in the source; they are usually repeats but may differ in a detail not shown here. Equal entries are not always repeated.

Conditions: for mass density: Liquid, isochoric method; for surface tension liquid-gas: Ring tensiometer

CCCCCCCCCCCCCC[P+](CCCCCC)(CCCCCC)CCCCCC.N#C[N-]C#N [tetradecyl(trihexyl)phosphonium dicyanamide]
Conditions	mass density [kg/m3]
240.45 K, 9948.1 kPa	936.26
247.9 K, 20013 kPa	935.78
248.45 K, 1061.1 kPa	928.34
255.19 K, 9753 kPa	927.91
255.47 K, 29932 kPa	935.43
255.48 K, 30358 kPa	935.75
262.34 K, 100 kPa	919.18
263.19 K, 40368 kPa	935.25
263.31 K, 20048 kPa	927.4
265.01 K, 1331.4 kPa	918.74
268.5 K, 100 kPa	915.58
271.01 K, 49601 kPa	934.43
271.54 K, 9121.6 kPa	918.33
271.95 K, 29894 kPa	926.34
273.37 K, 100 kPa	912.9
278.2 K, 100 kPa	910.1
279.99 K, 39498 kPa	925.84
280.34 K, 20094 kPa	917.77
281.41 K, 1813.9 kPa	908.67
283.3 K, 100 kPa	907.06
288.09 K, 48847 kPa	925.34
288.37 K, 100 kPa	904.29
289.04 K, 30059 kPa	917.24
289.74 K, 10390 kPa	908.18
293.14 K, 100 kPa	901.37
297.73 K, 39781 kPa	916.7
298.14 K, 20028 kPa	907.66
298.15 K, 119.7 kPa	898.63
298.21 K, 100 kPa	898.81
298.4 K, 1119.7 kPa	898.73
303.08 K, 100 kPa	895.87
306.53 K, 28505 kPa	907.16
307.06 K, 9995.2 kPa	898.22
307.27 K, 49935 kPa	916.12
308.18 K, 100 kPa	892.91
313.09 K, 100 kPa	890.2
316.64 K, 19643 kPa	897.65
316.65 K, 39471 kPa	906.55
318.03 K, 100 kPa	887.53
318.37 K, 1160.7 kPa	887.84
323.32 K, 100 kPa	884.69
327.54 K, 49978 kPa	905.9
327.66 K, 10032 kPa	887.3
327.67 K, 30114 kPa	897.01
328.16 K, 100 kPa	881.94
332.96 K, 100 kPa	879.42
338.03 K, 100 kPa	876.79
338.23 K, 19830 kPa	886.69
338.63 K, 41032 kPa	896.36
339.22 K, 1500.6 kPa	876.45
342.86 K, 100 kPa	873.89
348.12 K, 100 kPa	871.1
348.37 K, 49973 kPa	895.79
349.27 K, 10043 kPa	875.89
349.28 K, 29863 kPa	886.05
353.28 K, 100 kPa	868.29
358 K, 100 kPa	865.81
364.53 K, 100 kPa	862.18

Conditions	surface tension liquid-gas
283.57 K	32.46 mN/m
283.61 K	32.69 mN/m
288.08 K	32.54 mN/m
288.09 K	31.93 mN/m
293.35 K	31.85 mN/m
293.41 K	32.02 mN/m
298.2 K	31.68 mN/m
298.24 K	31.82 mN/m
303.15 K	30.98 mN/m
303.2 K	31.32 mN/m
308.16 K	30.28 mN/m
308.17 K	30.84 mN/m
313.21 K	29.67 mN/m
313.25 K	30.4 mN/m
318.29 K	29.57 mN/m
318.3 K	30.08 mN/m
323.33 K	29.65 mN/m
323.39 K	29.41 mN/m
328.05 K	28.72 mN/m
328.09 K	29.18 mN/m
333.58 K	28.62 mN/m and 28.77 mN/m
338.55 K	28.21 mN/m
338.57 K	28.35 mN/m
343.55 K	27.83 mN/m
343.57 K	27.93 mN/m
348.56 K	27.59 mN/m
348.64 K	27.56 mN/m
353.46 K	26.45 mN/m
353.49 K	27.11 mN/m
358.44 K	26.17 mN/m
358.57 K	26.7 mN/m
365.15 K	25.74 mN/m
365.21 K	26.14 mN/m
